Assay results: patent publication US20080249077A1, “17.Beta.-Fluoromethoxycarbonyl-Androst-4-En-3-One Compounds With a 17.Alpha.-Carbonate Sustituent” (priority 2005, published 2008)

Each compound was assayed against T1, glucocorticoid receptor (Homo sapiens, UniProt P04150) (assay: Assay for transactivation activity of the glucocorticoid agonists (MMTV-LTR renilla luciferase reporter in A549 cells)). Conditions: compound 6 hour at 37° C., read-out: maximal response relative to Dexamethasone (100%) (transactivation).
T1 construct: A549 cells stably transfected with a reporter gene; endogenous in cells; host or cells: A549 cells
T1 sequence (P04150 1-777): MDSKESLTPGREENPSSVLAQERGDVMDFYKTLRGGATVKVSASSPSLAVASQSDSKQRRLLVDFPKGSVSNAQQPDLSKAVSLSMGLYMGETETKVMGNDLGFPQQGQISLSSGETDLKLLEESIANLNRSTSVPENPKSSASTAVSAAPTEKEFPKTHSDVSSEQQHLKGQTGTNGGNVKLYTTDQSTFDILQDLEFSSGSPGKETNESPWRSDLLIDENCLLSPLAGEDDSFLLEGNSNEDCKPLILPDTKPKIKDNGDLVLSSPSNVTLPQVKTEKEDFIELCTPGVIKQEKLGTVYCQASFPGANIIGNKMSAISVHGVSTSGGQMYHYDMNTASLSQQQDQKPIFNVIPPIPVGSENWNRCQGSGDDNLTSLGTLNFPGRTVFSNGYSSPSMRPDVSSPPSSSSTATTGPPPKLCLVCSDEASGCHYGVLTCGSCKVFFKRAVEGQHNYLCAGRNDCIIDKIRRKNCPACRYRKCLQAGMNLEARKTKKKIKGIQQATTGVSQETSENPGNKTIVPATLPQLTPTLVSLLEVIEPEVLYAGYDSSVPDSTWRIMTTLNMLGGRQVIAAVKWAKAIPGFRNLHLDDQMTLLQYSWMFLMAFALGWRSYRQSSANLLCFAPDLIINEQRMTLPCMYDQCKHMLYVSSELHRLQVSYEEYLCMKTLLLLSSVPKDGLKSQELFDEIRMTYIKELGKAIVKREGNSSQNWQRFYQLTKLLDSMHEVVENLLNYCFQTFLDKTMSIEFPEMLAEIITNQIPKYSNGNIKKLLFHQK
Assay type: cell-based
Description: Assay for Transactivation Activity of the Glucocorticoid Agonists
The functional assay based on that described by R. J. H. Austin et al., Eur Resp J. (2002), 20, 1386-1392 measures the ability of compounds to directly transactivate gene expression. A549 cells stably transfected with a reporter gene containing the glucocorticoid responsive region of the mouse mammary tumour virus long terminal repeat (MMTV-LTR) coupled to renilla luciferase were treated with test compounds at appropriate doses for 6 hour at 37° C. The amount of luciferase activity present within the cells is then determined by measuring the light emitted following incubation with a suitable substrate. Dose response curves were constructed from which EC50 values were estimated and from which maximal responses are calculated relative to Dexamethasone (100%).

| Structure (SMILES) | Emax [%] |
| --- | --- |
| CC(C)C1CCC(OC(=O)O[C@]2(C(=O)OCF)[C@H](C)C[C@H]3[C@@H]4C[C@H](F)C5=CC(=O)C=C[C@]5(C)[C@@]4(F)[C@@H](O)C[C@@]32C)CC1 (stereo partly drawn) [Example 11, Fluoromethyl(6α,11β,16α,17α)-6,9-difluoro-11-hydroxy-16-methyl-17-[({[4-(1-methylethyl)cyclohexyl]oxy}carbonyl)oxy]-3-oxoandrosta-1,4-diene-17-carboxylate] | < 25 |
| CCC(CC)OC(=O)O[C@]1(C(=O)OCF)[C@H](C)C[C@H]2[C@@H]3C[C@H](F)C4=CC(=O)C=C[C@]4(C)[C@@]3(F)[C@@H](O)C[C@@]21C [Example 4, Fluoromethyl(6α,11β,16α,17α)-17-({[(1-ethylpropyl)oxy]carbonyl}oxy)-6,9-difluoro-11-hydroxy-16-methyl-3-oxoandrosta-1,4-diene-17-carboxylate] | < 25 |
| CC[C@H]1CC[C@@H](OC(=O)O[C@]2(C(=O)OCF)[C@H](C)C[C@H]3[C@@H]4C[C@H](F)C5=CC(=O)C=C[C@]5(C)[C@@]4(F)[C@@H](O)C[C@@]32C)CC1 (relative stereo) [Example 36, Fluoromethyl(6α,11β,16α,17α)-17-({[(cis-4-ethylcyclohexyl)oxy]carbonyl}oxy)-6,9-difluoro-11-hydroxy-16-methyl-3-oxoandrosta-1,4-diene-17-carboxylate] | < 25 |
| C[C@@H]1C[C@H]2[C@@H]3C[C@H](F)C4=CC(=O)C=C[C@]4(C)[C@@]3(F)[C@@H](O)C[C@]2(C)[C@@]1(OC(=O)OC1CCCC(C)(C)C1)C(=O)OCF (stereo partly drawn) [Example 19, Fluoromethyl(6α,11β,16α,17α)-17-({[(3,3-dimethylcyclohexyl)oxy]carbonyl}oxy)-6,9-difluoro-11-hydroxy-16-methyl-3-oxoandrosta-1,4-diene-17-carboxylate] | < 25 |
| CC(OC(=O)O[C@]1(C(=O)OCF)[C@H](C)C[C@H]2[C@@H]3C[C@H](F)C4=CC(=O)C=C[C@]4(C)[C@@]3(F)[C@@H](O)C[C@@]21C)C1CCCC1 (stereo partly drawn) [Example 21, Fluoromethyl(6α,11β,16α,17α)-17-({[(1-cyclopentylethyl)oxy]carbonyl}oxy)-6,9-difluoro-11-hydroxy-16-methyl-3-oxoandrosta-1,4-diene-17-carboxylate] | < 25 |
| C[C@@H]1C[C@H]2[C@@H]3C[C@H](F)C4=CC(=O)C=C[C@]4(C)[C@@]3(F)[C@@H](O)C[C@]2(C)[C@@]1(OC(=O)OC1C(C)(C)C1(C)C)C(=O)OCF [Example 26, Fluoromethyl(6α,11β,16α,17α)-6,9-difluoro-11-hydroxy-16-methyl-3-oxo-17-({[(2,2,3,3-tetramethylcyclopropyl)oxy]carbonyl}oxy)androsta-1,4-diene-17-carboxylate] | < 25 |
| C[C@@H]1C[C@H]2[C@@H]3C[C@H](F)C4=CC(=O)C=C[C@]4(C)[C@@]3(F)[C@@H](O)C[C@]2(C)[C@@]1(OC(=O)OCC(C)(C)C)C(=O)OCF [Example 7, Fluoromethyl(6α,11β,16α,17α)-17-({[(2,2-dimethylpropyl)oxy]carbonyl}oxy)-6,9-difluoro-11-hydroxy-16-methyl-3-oxoandrosta-1,4-diene-17-carboxylate] | < 25 |
| CCCC(CCC)OC(=O)O[C@]1(C(=O)OCF)[C@H](C)C[C@H]2[C@@H]3C[C@H](F)C4=CC(=O)C=C[C@]4(C)[C@@]3(F)[C@@H](O)C[C@@]21C [Example 22, Fluoromethyl(6α,11β,16α,17α)-6,9-difluoro-11-hydroxy-16-methyl-3-oxo-17-({[(1-propylbutyl)oxy]carbonyl}oxy)androsta-1,4-diene-17-carboxylate] | < 25 |
| CC1CCCCC1OC(=O)OC1(C(=O)OCF)C(C)CC2C3CC(F)C4=CC(=O)C=CC4(C)C3(F)C(O)CC21C (stereo not drawn) [Example 10, Fluoromethyl(6α,11β,16α,17α)-6,9-difluoro-11-hydroxy-16-methyl-17-[({[(1SR,2RS)-2-methylcyclohexyl]oxy}carbonyl)oxy]-3-oxoandrosta-1,4-diene-17-carboxylate] | < 25 |
| C[C@@H]1C[C@H]2[C@@H]3C[C@H](F)C4=CC(=O)C=C[C@]4(C)[C@@]3(F)[C@@H](O)C[C@]2(C)[C@@]1(OC(=O)O[C@H]1C[C@H]2CC[C@]1(C)C2(C)C)C(=O)OCF [Example 28, Fluoromethyl(6α,11β,16α,17α)-6,9-difluoro-11-hydroxy-16-methyl-3-oxo-17-[({[(1R,2S,4R)-1,7,7-trimethylbicyclo[2.2.1]hept-2-yl]oxy}carbonyl)oxy]androsta-1,4-diene-17-carboxylate] | < 25 |
| CCC(OC(=O)O[C@]1(C(=O)OCF)[C@H](C)C[C@H]2[C@@H]3C[C@H](F)C4=CC(=O)C=C[C@]4(C)[C@@]3(F)[C@@H](O)C[C@@]21C)C1CCCC1 (stereo partly drawn) [Example 20, Fluoromethyl(6α,11β,16α,17α)-17-({[(1-cyclopentylpropyl)oxy]carbonyl}oxy)-6,9-difluoro-11-hydroxy-16-methyl-3-oxoandrosta-1,4-diene-17-carboxylate] | < 25 |
| C[C@@H]1C[C@H]2[C@@H]3C[C@H](F)C4=CC(=O)C=C[C@]4(C)[C@@]3(F)[C@@H](O)C[C@]2(C)[C@@]1(OC(=O)O[C@@H]1C[C@@H]2CC[C@@]1(C)C2(C)C)C(=O)OCF [Example 27, Fluoromethyl(6α,11β,16α,17α)-6,9-difluoro-11-hydroxy-16-methyl-3-oxo-17-[({[(1S,2R,4S)-1.7.7-trimethylbicyclo[2.2.1]hept-2-yl]oxy}carbonyl)oxy]androsta-1,4-diene-17-carboxylate] | < 25 |
| CCCC(OC(=O)O[C@]1(C(=O)OCF)[C@H](C)C[C@H]2[C@@H]3C[C@H](F)C4=CC(=O)C=C[C@]4(C)[C@@]3(F)[C@@H](O)C[C@@]21C)C(C)C (stereo partly drawn) [Example 25, Fluoromethyl(6α,11β,16α,17α)-6,9-difluoro-11-hydroxy-16-methyl-17-[({[1-(1-methylethyl)butyl]oxy}carbonyl)oxy]-3-oxoandrosta-1,4-diene-17-carboxylate] | < 25 |
| C[C@@H]1C[C@H](C)C[C@H](OC(=O)O[C@]2(C(=O)OCF)[C@H](C)C[C@H]3[C@@H]4C[C@H](F)C5=CC(=O)C=C[C@]5(C)[C@@]4(F)[C@@H](O)C[C@@]32C)C1 [Example 17, Fluoromethyl(6α,11β,16α,17α)-17-[({[(1S,3R,5S)-3,5-dimethylcyclohexyl]oxy}carbonyl)oxy]-6,9-difluoro-11-hydroxy-16-methyl-3-oxoandrosta-1,4-diene-17-carboxylate] | < 25 |
| C[C@@H]1C[C@H]2[C@@H]3C[C@H](F)C4=CC(=O)C=C[C@]4(C)[C@@]3(F)[C@@H](O)C[C@]2(C)[C@@]1(OC(=O)OCC1C(C)(C)C1(C)C)C(=O)OCF [Example 24, Fluoromethyl(6α,11β,16α,17α)-6,9-difluoro-11-hydroxy-16-methyl-3-oxo-17-[({[(2,2,3,3-tetramethylcyclopropyl)methyl]oxy}carbonyl)oxy]androsta-1,4-diene-17-carboxylate] | < 25 |
| CC(OC(=O)O[C@]1(C(=O)OCF)[C@H](C)C[C@H]2[C@@H]3C[C@H](F)C4=CC(=O)C=C[C@]4(C)[C@@]3(F)[C@@H](O)C[C@@]21C)C(C)(C)C (stereo partly drawn) [Example 23, Fluoromethyl(6α,11β,16α,17α)-6,9-difluoro-11-hydroxy-16-methyl-3-oxo-17-({[(1,2,2-trimethylpropyl)oxy]carbonyl}oxy)androsta-14-diene-17-carboxylate] | < 25 |
| COC1CCCCC1OC(=O)OC1(C(=O)OCF)C(C)CC2C3CC(F)C4=CC(=O)C=CC4(C)C3(F)C(O)CC21C (stereo not drawn) [Example 18, Fluoromethyl(6α,11β,16α,17α)-6,9-difluoro-11-hydroxy-16-methyl-17-[({[(1RS,2RS)-2-(methyloxy)cyclohexyl]oxy}carbonyl)oxy]-3-oxoandrosta-1,4-diene-17-carboxylate] | < 25 |
| C[C@@H]1C[C@H]2[C@@H]3C[C@H](F)C4=CC(=O)C=C[C@]4(C)[C@@]3(F)[C@@H](O)C[C@]2(C)[C@@]1(OC(=O)OC1CCCC1)C(=O)OCF [Example 31, Fluoromethyl(6α,11β,16α,17α)-17-{[(cyclopentyloxy)carbonyl]oxy}-6,9-difluoro-11-hydroxy-16-methyl-3-oxoandrosta-1,4-diene-17-carboxylate] | < 25 |
